Laboratory results reported in patent US4221781A, “Synergistic penicillin-cephalosporin compositions and methods” (priority 1971, dated 1980).
Where two headings read alike, the source gives them in different places.

Legend:
Coliforma = assay: Example 9: in vitro MIC, serial dilution test, Coliforma; assay type: cell-based
Experimental: (§1) Tryptose phosphate broth, containing the appropriate concentrations of the compounds or of the combination of them, was inoculated with 0.5×10^4 -5×10^4 organisms of the various microorganisms tested and incubated overnight at 37° C. Minimum inhibitory concentrations (M.I.C.) were taken as the concentrations of the compounds or of the combination at which no visible growth occurred.
(§2) Using the technique described in Example 1 the in vitro effect of combinations of 6-(D-α-aminophenylacetamido)-penicillanic acid (I) and 6-[(N,N-diethylformamidino)-N'-amino]penicillanic acid (VII) in the ratios 1:1, 1:2 and 2:1 against clinically isolated strains of Coliforma, Klebsiella-Enterobacter and Proteus was determined in serial dilution tests.

Klebsiella-Enterobacter [1] = assay: Example 9: in vitro MIC, serial dilution test, Klebsiella-Enterobacter; assay type: cell-based
Experimental: as §1, §2

Proteus [2] = assay: Example 9: in vitro MIC, serial dilution test, Proteus; assay type: cell-based
Experimental: as §1, §2

[3] = system: clinically isolated coliform bacterium; assay: Example 5: in vitro M.I.C. of IV, various penicillins and 1:1 combinations; assay type: cell-based
Experimental: as §1
Using the same technique as described in Example 1 the in vitro activity of 6[(piperidyl-1)-methyleneamino]-penicillianic acid (IV), of various penicillins, and of 1:1 combinations of IV with these penicillins, was determined against a clinically isolated coliform bacterium.

Coliform = assay: Example 1: in vitro M.I.C., serial dilution test, coliforms; assay type: cell-based; details: 37° C overnight
Experimental: as §1

Proteus mirabilis = assay: Example 1: in vitro M.I.C., serial dilution test, Proteus mirabilis; assay type: cell-based; details: Proteus mirabilis strain 35895; 37° C overnight
Experimental: as §1

Proteus vulgaris = assay: Example 1: in vitro M.I.C., serial dilution test, Proteus vulgaris; assay type: cell-based
Experimental: as §1

Proteus [4] = assay: Example 1: in vitro M.I.C., serial dilution test, Proteus; assay type: cell-based; details: 37° C overnight
Experimental: as §1

E.coli III [5] = assay: Example 3: in vivo activity, mean curative dose in mice infected with E.coli III; parameters: species or system female NMRI white mice; details: Escherichia coli, sc, 96 h, subcutaneous, read-out: CD50 (mean curative dose)
Experimental: The number of deaths in the various groups were recorded after 96 hours and the mean curative doses (CD50) were calculated. (In the table, LD50 gives the dilution of an overnight culture of the organism causing a 50% death rate in animals receiving no therapy; the number of LD50 -doses records the severity of the infections given to the animals.)

Proteus [6] = assay: Example 4: in vitro M.I.C., serial dilution test, Proteus; assay type: cell-based
Experimental: as §1

Klebsiella-Enterobacter [7] = assay: Example 4: in vitro M.I.C., serial dilution test, Klebsiella-Enterobacter; assay type: cell-based
Experimental: as §1

E.coli III [8] = assay: Example 6: emergence of resistance, subculturing by serial twofold broth dilution; assay type: cell-based; details: Escherichia coli
Experimental: Subculturing using a serial twofold broth dilution technique was performed with 6-(D-α-amino-phenylacetamido)-penicillanic acid (I), 6-[(piperidyl-1)methyleneamino]penicillanic acid (IV) and a 1:1 combination of I+IV. As inocula were used bacteria from the tube with the highest concentration of compound still permitting visible growth to the naked eye after incubation at 37° C. overnight. The following increases in MIC-values were noted.

[9] = system: clinically isolated coliform; assay: Example 7: emergence of resistance, subculturing by serial twofold broth dilution; assay type: cell-based
Experimental: Subculturing using a serial twofold broth dilution technique was performed with 6-(D-α-aminophenylacetamido)-penicillanic acid (I), 6-[(hexahydro-1H-azepin-1-yl)methyleneamino]penicillanic acid (II), and a 1:1 combination of I and II. The strain used was a clinically isolated coliform. As inocula were used bacteria from the tube with the highest concentration of compound still permitting visible growth to the naked eye after incubation at 37° C. overnight. The following increases in MIC values were noted.

[10] = system: Klebsiella-Enterobacter (strain 4/71); assay: Example 10: in vitro M.I.C. of II, cephalosporins and 1:1 combinations; assay type: cell-based; details: Klebsiella-Enterobacter strain 4/71; read-out: M.I.C.
Experimental: as §1
(§3) Using the same technique as described in Example 1 the in vitro activity of 6-[(hexahydro-1H-azepin-1-yl)methyleneamino]penicillanic acid (II), of various cephalosporins previously mentioned in this specification, and of 1:1 combinations of II with these cephalosporins was determined against a clinically isolated strain of Klebsiella-Enterobacter (strain 4/71)

[11] = system: Proteus (Proteus Mirabilis I 190); assay: Example 11: in vitro M.I.C. of II, cephalosporins and 1:1 combinations; assay type: cell-based; details: Proteus Mirabilis I 190, read-out: M.I.C.
Experimental: as §1
as §3, with “cephalosporins” for “cephalosporins previously mentioned in this specification,”, “Proteus (Proteus Mirabilis I 190).” for “Klebsiella-Enterobacter (strain 4/71)”

[12] = Klebsiella-Enterobacter strain 8, read-out: MIC

## CCN(C=NC1C(=O)N2C1SC(C)(C)C2C(=O)O)CC (stereo not shown) [VII, 6-[(N,N-diethylformamidino)-N'-amino]penicillanic acid]
Coliforma; Coliforma strain 1
  MIC: 3.12 µg/mL
Coliforma; Coliforma strain 4
  MIC: 3.12 µg/mL
Coliforma; Coliforma strain 7
  MIC: 6.25 µg/mL
Coliforma; Coliforma strain 16
  MIC: 6.25 µg/mL
Klebsiella-Enterobacter [1]; Klebsiella-Enterobacter strain 1, read-out: MIC
  MIC: > 100 µg/mL
Klebsiella-Enterobacter [1]; Klebsiella-Enterobacter strain 5, read-out: MIC
  MIC: > 100 µg/mL
Klebsiella-Enterobacter [1]; Klebsiella-Enterobacter strain 7, read-out: MIC
  MIC: > 100 µg/mL
Klebsiella-Enterobacter [1]; [12]
  MIC: 12.5 µg/mL
Proteus [2]; Proteus strain 9, read-out: MIC
  MIC: 100 µg/mL

## CC1(C)S[C@@H]2[C@H](NC(=O)C(C(=O)O)c3ccccc3)C(=O)N2[C@H]1C(=O)O (stereo partly drawn) [α-carboxybenzylpenicillin]
[3]
  MIC: 12.5 µg/mL

## CC1(C)S[C@@H]2[C@H](NC(=O)Cc3ccccc3)C(=O)N2[C@H]1C(=O)O [benzylpenicillin]
[3]
  MIC: 25 µg/mL

## CC1(C)S[C@@H]2[C@H](NC(=O)[C@H](N)c3ccccc3)C(=O)N2[C@H]1C(=O)O [I, 6-(D-α-aminophenylacetamido)penicillanic acid]
Coliform; Coliform strain 3/70
  MIC: 1.56 µg/mL
Coliform; Coliform strain 9/70
  MIC: 3.12 µg/mL
Coliform; Coliform strain 10/70
  MIC: 3.12 µg/mL
Coliform; Coliform strain 17/70
  MIC: 3.12 µg/mL
Proteus mirabilis
  MIC: 25 µg/mL
Proteus vulgaris
  MIC: 50 µg/mL
Proteus vulgaris; Proteus vulgaris A, 37° C overnight, read-out: M.I.C.
  MIC: 0.78 µg/mL
Proteus [4]; Proteus strain 12/70
  MIC: 100 µg/mL
Proteus [4]; Proteus strain 13/70
  MIC: 100 µg/mL
Proteus [4]; Proteus strain 20/70
  MIC: > 100 µg/mL
E.coli III [5]; LD50 1.5·10^-3, 6.6 LD50-doses given
  ED50: 5.5 mg/kg
E.coli III [5]; LD50 8.1·10^-4, 1.2·10^4 LD50-doses given
  ED50: 250 mg/kg
Proteus [6]; Proteus strain 4/70
  MIC: 1.56 µg/mL
Proteus [6]; Proteus strain 6/70, read-out: M.I.C.
  MIC: 0.39 µg/mL
Proteus [6]; Proteus strain 7/70
  MIC: 1.56 µg/mL
Proteus [6]; Proteus strain 9/70
  MIC: 6.25 µg/mL
Proteus [6]; Proteus strain 10/70
  MIC: 1.56 µg/mL
Klebsiella-Enterobacter [7]; Klebsiella-Enterobacter strain 1/70
  MIC: 50 µg/mL
Klebsiella-Enterobacter [7]; Klebsiella-Enterobacter strain 2/70, read-out: M.I.C.
  MIC: 25 µg/mL
Klebsiella-Enterobacter [7]; Klebsiella-Enterobacter strain 5/70
  MIC: 100 µg/mL
Klebsiella-Enterobacter [7]; Klebsiella-Enterobacter strain 7/70
  MIC: > 100 µg/mL
Klebsiella-Enterobacter [7]; Klebsiella-Enterobacter strain 9/70
  MIC: 50 µg/mL
Klebsiella-Enterobacter [7]; Klebsiella-Enterobacter strain 10/70
  MIC: 50 µg/mL
Klebsiella-Enterobacter [7]; Klebsiella-Enterobacter strain 431
  MIC: 100 µg/mL
E.coli III [8]; passage 0
  MIC: 1.56 µg/mL
E.coli III [8]; passage 1
  MIC: 6.25 µg/mL
E.coli III [8]; passage 2
  MIC: 25 µg/mL
E.coli III [8]; passage 3
  MIC: 50 µg/mL
E.coli III [8]; passage 4
  MIC: 50 µg/mL
E.coli III [8]; passage 5
  MIC: 100 µg/mL
E.coli III [8]; passage 6
  MIC: 100 µg/mL
[9]; passage 7
  MIC: 12.5 µg/mL
[9]; passage 8
  MIC: 12.5 µg/mL
Coliforma; Coliforma strain 1
  MIC: 1.56 µg/mL
Coliforma; Coliforma strain 4
  MIC: 3.12 µg/mL
Coliforma; Coliforma strain 7
  MIC: 1.56 µg/mL
Coliforma; Coliforma strain 13
  MIC: 3.12 µg/mL
Coliforma; Coliforma strain 16
  MIC: 3.12 µg/mL
Klebsiella-Enterobacter [1]; Klebsiella-Enterobacter strain 1
  MIC: 50 µg/mL
Klebsiella-Enterobacter [1]; Klebsiella-Enterobacter strain 5
  MIC: 100 µg/mL
Klebsiella-Enterobacter [1]; Klebsiella-Enterobacter strain 7
  MIC: > 100 µg/mL
Klebsiella-Enterobacter [1]; [12]
  MIC: 25 µg/mL
Proteus [2]
  MIC: 3.12 µg/mL

## CC1(C)S[C@@H]2[C@H](NC(=O)[C@H](N=[N+]=[N-])c3ccccc3)C(=O)N2[C@H]1C(=O)O [6-(D-α-azidophenylacetamido)penicillanic acid]
[3]
  MIC: 50 µg/mL

## Cc1nnc(SCC2=C(C(=O)O)N3C(=O)[C@@H](NC(=O)Cn4cnnn4)[C@H]3SC2)s1 [Cephazoline]
[10]
  MIC: 12.5 µg/mL
[11]
  MIC: 6.25 µg/mL

## CC1=C(C(=O)O)N2C(=O)[C@@H](NC(=O)[C@H](N)c3ccccc3)[C@H]2SC1 [Cephalexine]
[10]
  MIC: 50 µg/mL
[11]
  MIC: 25 µg/mL

## [N-]=[N+]=NCC1=C(C(=O)O)N2C(=O)C(NC(=O)Cc3cccs3)C2SC1 (stereo not shown) [EPC 821/4II]
[10]
  MIC: 100 µg/mL
[11]
  MIC: 12.5 µg/mL
